# Source: US20250161223A1, “PHARMACEUTICAL FORMULATION” (Novartis AG, priority 2022, published 2025)
# Columns and labels:
# [1] = Chemical compatibility study of drug substance alone and binary mixtures (HPLC); assay type: physicochemical; conditions: 4 weeks, 40° C./75% RH
# Procedure: For HPLC in Table 1, the following conditions were applied: • Mobile Phase A: 0.1% Trifluoroacetic acid in Water. • Mobile Phase B: Water:Acetonitrile(50:950 v/v) • Column: Aquity HSS T3, • Column Dimension: Length—100 mm, Internal Diameter—2.1 mm, Particle size—1.8 μm • Flow Rate: 0.5 mL/min • Detection: 220 nm • Column Temperature: 40° C. • Auto sampler Temperature: 22° C. • Injection Volume: 4 μL • Run Time: 13.0 minutes • Program: Gradient […] All excipients except PVP-K30 may still be suitable for formulation when used in ratios more realistic in a final formulation (see Example 2).
# [2] = Solid form conversion of slurry in water; assay type: physicochemical; conditions: 30% w/w slurry in water; after 5 hrs
# Source text: WG based core tablets can easily be converted into film-coated tablets with conventional coating operations. […] Looking at an unknown landscape of polymorphs for TNO155, WG was not pursued further.
structure (smiles),measurement,setting,value
"C[C@@H]1OCC2(CCN(c3cnc(Sc4ccnc(N)c4Cl)c(N)n3)CC2)[C@@H]1N [TNO155-BBA, (3S,4S)-8-(6-amino-5-((2-amino-3-chloropyridin-4-yl)thio)pyrazin-2-yl)-3-methyl-2-oxa-8-azaspiro[4.5]decan-4-amine succinate (1:1) hemihydrate form HA]",Assay of active ingredient,[1]; closed,98.6%
same,Assay of active ingredient,[1]; open,98.7%
same,Solid form stability in slurry,[2],solid form conversion
